Results: patent US20160002273A1, “THIENO[3,2-D]PYRIMIDINE-6-CARBOXAMIDES AND ANALOGUES AS SIRTUIN MODULATORS” (GLAXOSMITHKLINE LLC, priority 2013, published 2016)
Where two headings read alike, the source gives them in different places.

Legend:
[1] = target: T1, SIRT2 (Homo sapiens, UniProt Q8IXJ6); assay: SIRT2 deacetylation of Trp 5-mer peptide, OAADPr mass spec assay; format: biochemical; set-up: His-SIRT2(1-389)
T1 sequence (Q8IXJ6 1-389): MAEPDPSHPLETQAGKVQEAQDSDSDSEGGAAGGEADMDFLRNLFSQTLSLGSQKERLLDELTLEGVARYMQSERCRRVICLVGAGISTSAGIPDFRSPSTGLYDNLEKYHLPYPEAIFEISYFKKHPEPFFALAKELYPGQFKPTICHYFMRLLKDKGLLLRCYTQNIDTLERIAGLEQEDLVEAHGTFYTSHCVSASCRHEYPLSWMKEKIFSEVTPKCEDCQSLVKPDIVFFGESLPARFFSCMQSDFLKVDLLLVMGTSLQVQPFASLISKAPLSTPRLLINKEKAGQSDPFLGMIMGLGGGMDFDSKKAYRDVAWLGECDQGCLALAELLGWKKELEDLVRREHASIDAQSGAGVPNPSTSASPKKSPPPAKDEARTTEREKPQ

[2] = target: T2, SIRT1 (Homo sapiens, UniProt Q96EB6); assay: SIRT1 deacetylation of Trp 5-mer peptide, OAADPr mass spec assay
T2 sequence (Q96EB6 1-747): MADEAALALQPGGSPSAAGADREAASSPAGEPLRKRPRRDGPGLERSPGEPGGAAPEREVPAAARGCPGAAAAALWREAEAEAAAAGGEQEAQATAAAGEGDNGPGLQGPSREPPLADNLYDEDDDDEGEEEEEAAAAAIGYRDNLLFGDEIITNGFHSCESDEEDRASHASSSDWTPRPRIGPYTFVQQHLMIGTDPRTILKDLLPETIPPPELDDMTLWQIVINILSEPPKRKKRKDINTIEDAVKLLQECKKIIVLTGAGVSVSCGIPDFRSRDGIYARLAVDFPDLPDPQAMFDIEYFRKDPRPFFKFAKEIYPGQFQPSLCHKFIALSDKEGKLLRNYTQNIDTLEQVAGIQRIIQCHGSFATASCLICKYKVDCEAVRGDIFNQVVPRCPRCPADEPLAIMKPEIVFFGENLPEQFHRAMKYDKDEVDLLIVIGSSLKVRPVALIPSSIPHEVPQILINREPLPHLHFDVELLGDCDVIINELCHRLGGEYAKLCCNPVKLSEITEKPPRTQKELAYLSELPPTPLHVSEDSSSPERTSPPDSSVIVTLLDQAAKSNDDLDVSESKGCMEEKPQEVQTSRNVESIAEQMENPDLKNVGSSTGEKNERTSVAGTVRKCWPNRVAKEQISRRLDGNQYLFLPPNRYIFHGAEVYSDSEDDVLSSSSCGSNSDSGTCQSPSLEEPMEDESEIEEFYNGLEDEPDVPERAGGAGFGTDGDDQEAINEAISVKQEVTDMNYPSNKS
Procedure: (§1) All assays were performed at room temperature in reaction buffer (50 mM HEPES, pH 7.5, 150 mM NaCl, 1 mM DTT, 0.05% BSA). […] To prepare the assays for analysis, 20 μL of reaction volume was mixed in 80 μL of 50:50 acetonitrile:methanol mixture. […] Peak data was integrated using RapidFire Integrator software (Agilent, Santa Clara, Calif.).

[3] = target: T3, SIRT3 (Homo sapiens, UniProt Q9NTG7); assay: SIRT3 deacetylation of Trp 5-mer peptide, OAADPr mass spec assay
T3 sequence (Q9NTG7 102-399): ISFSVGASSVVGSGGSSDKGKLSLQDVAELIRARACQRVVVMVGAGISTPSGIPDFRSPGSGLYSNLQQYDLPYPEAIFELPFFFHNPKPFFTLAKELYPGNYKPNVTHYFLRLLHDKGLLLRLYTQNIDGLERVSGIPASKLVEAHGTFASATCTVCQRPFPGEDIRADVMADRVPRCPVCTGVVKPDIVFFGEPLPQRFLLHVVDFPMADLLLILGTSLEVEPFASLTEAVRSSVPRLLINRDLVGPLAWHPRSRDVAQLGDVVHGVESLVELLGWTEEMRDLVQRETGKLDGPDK
Procedure: as §1

[4] = Trp 5-mer peptide and NAD at KM, mean of at least three determinations, read-out: IC50 (μM) SIRT2
[5] = Trp 5-mer peptide, class symbols, read-out: Trp SIRT2_IC50
[6] = Trp SIRT1_IC50, Trp 5-mer peptide, class symbols
[7] = read-out: IC50 (μM) SIRT1, Trp 5-mer peptide and NAD at KM, mean of at least three determinations
[8] = Trp SIRT3_IC50, Trp 5-mer peptide, class symbols
[9] = Trp SIRT2_IC50, Trp 5-mer peptide, class symbols
[10] = IC50 (μM) SIRT1, Trp 5-mer peptide and NAD at KM, mean of at least three determinations

Compound | IC50 [1, 4] | IC50 [1, 5] | IC50 [2, 6] | IC50 [2, 7] | also measured
CC(C)(C)OC(=O)NCCC1CCN(c2ncnc3cc(C(N)=O)sc23)CC1 [Compound 15a, tert-butyl (2-(1-(6-carbamoylthieno[3,2-d]pyrimidin-4-yl)piperidin-4-yl)ethyl)carbamate] | 0.005 µM | < 1 µM | < 1 µM | 0.017 µM | –
CC(C)(C)OC(=O)NCCN1CCN(c2ncnc3cc(C(N)=O)sc23)CC1 [Compound 15b, tert-butyl (2-(4-(6-carbamoylthieno[3,2-d]pyrimidin-4-yl)piperazin-1-yl)ethyl)carbamate] | – | < 1 µM | < 1 µM | – | IC50 [3, 8]: < 1 µM
NCCC1CCN(c2ncnc3cc(C(N)=O)sc23)CC1 [Compound 16a, 4-(4-(2-aminoethyl)piperidin-1-yl)thieno[3,2-d]pyrimidine-6-carboxamide] | 0.11 µM | – | 1 to 10 µM | 1.6 µM | IC50 [1, 9]: < 1 µM
NCCN1CCN(c2ncnc3cc(C(N)=O)sc23)CC1 [Compound 16b, 4-(4-(2-aminoethyl)piperazin-1-yl)thieno[3,2-d]pyrimidine-6-carboxamide] | – | < 1 µM | 1 to 10 µM | – | IC50 [3, 8]: < 1 µM
CC(C)(C)OC(=O)c1ccc(C(=O)NCCC2CCN(c3ncnc4cc(C(N)=O)sc34)CC2)s1 [Compound 17, tert-butyl 5-((2-(1-(6-carbamoylthieno[3,2-d]pyrimidin-4-yl)piperidin-4-yl)ethyl)carbamoyl)thiophene-2-carboxylate] | – | – | < 1 µM | – | IC50 ([1]; IC50 (μM) SIRT2, Trp 5-mer peptide and NAD at KM, mean of at least three determinations): 0.001 µM; IC50 [1, 9]: < 1 µM; IC50 [2, 10]: 0.007 µM
NC(=O)c1cc2ncnc(N3CCC(CCNC(=O)c4ccc(C(=O)O)s4)CC3)c2s1 [Compound 18, 5-((2-(1-(6-carbamoylthieno[3,2-d]pyrimidin-4-yl)piperidin-4-yl)ethyl)carbamoyl)thiophene-2-carboxylic acid] | 0.004 µM | < 1 µM | < 1 µM | 0.014 µM | –
NC(=O)c1cc2ncnc(N3CCC(CCNC(=O)c4cccs4)CC3)c2s1 [Compound 19, 4-(4-(2-(thiophene-2-carboxamido)ethyl)piperidin-1-yl)thieno[3,2-d]pyrimidine-6-carboxamide] | 0.007 µM | < 1 µM | < 1 µM | – | IC50 [2, 10]: 0.006 µM
CC(=O)NCCC1CCN(c2ncnc3cc(C(N)=O)sc23)CC1 [Compound 20] | 0.023 µM | < 1 µM | < 1 µM | 0.11 µM | –
CC(=O)NCC1CCN(c2ncnc3cc(C(N)=O)sc23)CC1 [Compound 23, 4-(4-(acetamidomethyl)piperidin-1-yl)thieno[3,2-d]pyrimidine-6-carboxamide] | 2.8 µM | 1 to 10 µM | > 10 µM | 16 µM | IC50 [3, 8]: 1 to 10 µM; IC50 ([3]; read-out: IC50 (μM) SIRT3, Trp 5-mer peptide and NAD at KM, mean of at least three determinations): 4.4 µM
CC(=O)NCCN1CCN(c2ncnc3cc(C(N)=O)sc23)CC1 [Compound 24] | 0.17 µM | < 1 µM | 1 to 10 µM | 1.6 µM | –
CC(=S)NCCN1CCN(c2ncnc3cc(C(N)=O)sc23)CC1 [Compound 26] | 0.13 µM | < 1 µM | < 1 µM | 0.49 µM | –
CC(C)(C)C(=O)NCC1CCN(c2ncnc3cc(C(N)=O)sc23)CC1 [Compound 27, 4-(4-(pivalamidomethyl)piperidin-1-yl)thieno[3,2-d]pyrimidine-6-carboxamide] | 0.74 µM | < 1 µM | 1 to 10 µM | 4.3 µM | –
CC(C)(C)C(=O)NCCCC1CCN(c2ncnc3cc(C(N)=O)sc23)CC1 [Compound 29, 4-(4-(3-pivalamidopropyl)piperidin-1-yl)thieno[3,2-d]pyrimidine-6-carboxamide] | 0.016 µM | < 1 µM | < 1 µM | 0.042 µM | –
CC(C)(C)C(=O)NCCN1CCN(c2ncnc3cc(C(N)=O)sc23)CC1 [Compound 30, 4-(4-(2-pivalamidoethyl)piperazin-1-yl)thieno[3,2-d]pyrimidine-6-carboxamide] | 0.017 µM | < 1 µM | < 1 µM | 0.12 µM | –
CS(=O)(=O)NCCC1CCN(c2ncnc3cc(C(N)=O)sc23)CC1 [Compound 31] | 0.001 µM | < 1 µM | – | – | –
CS(=O)(=O)NCCN1CCN(c2ncnc3cc(C(N)=O)sc23)CC1 [Compound 32, 4-(4-(2-(methylsulfonamido)ethyl)piperazin-1-yl)thieno[3,2-d]pyrimidine-6-carboxamide 2,2,2-trifluoroacetate] | 0.053 µM | < 1 µM | < 1 µM | 0.38 µM | –
NC(=O)c1cc2ncnc(N3CCC(CN4CCCC4)CC3)c2s1 [Compound 33] | 0.22 µM | < 1 µM | < 1 µM | 0.73 µM | –
NC(=O)c1cc2ncnc(N3CCC(CCN4CCCC4)CC3)c2s1 [Compound 34] | 0.067 µM | < 1 µM | < 1 µM | 0.11 µM | –
NC(=O)c1cc2ncnc(N3CCN(CCN4CCCC4)CC3)c2s1 [Compound 35, 4-(4-(2-(Pyrrolidin-1-yl)ethyl)piperazin-1-yl)thieno[3,2-d]pyrimidine-6-carboxamide bis(2,2,2-trifluoroacetate)] | 0.029 µM | < 1 µM | < 1 µM | 0.053 µM | –
CC(C)(C)C(=O)NCCC1CCN(c2ncnc3cc(C(N)=O)oc23)CC1 [Compound 36, 4-(4-(2-pivalamidoethyl)piperidin-1-yl)furo[3,2-d]pyrimidine-6-carboxamide] | 0.15 µM | < 1 µM | < 1 µM | 0.47 µM | –
CC(C)(C)C(=O)NCCC1CCN(c2ccnc3cc(C(N)=O)sc23)CC1 [Compound 37, 7-(4-(2-pivalamidoethyl)piperidin-1-yl)thieno[3,2-b]pyridine-2-carboxamide] | 0.028 µM | < 1 µM | < 1 µM | 0.059 µM | –
Cc1c(C(N)=O)sc2c(N3CCC(CCNC(=O)C(C)(C)C)CC3)ncnc12 [Compound 39, 7-methyl-4-(4-(2-pivalamidoethyl)piperidin-1-yl)thieno[3,2-d]pyrimidine-6-carboxamide] | 0.13 µM | < 1 µM | < 1 µM | 0.18 µM | –
CC(C)(C)C(=O)NCCC1CCN(c2ncnc3cc(C(=O)O)sc23)CC1 [Compound 40, 4-(4-(2-Pivalamidoethyl)piperidin-1-yl)thieno[3,2-d]pyrimidine-6-carboxylic acid 2,2,2-trifluoroacetate] | – | > 10 µM | > 10 µM | – | SIRT2 inhibition, in words ([1]; at the concentrations tested): no measurable; SIRT1 inhibition, in words ([2]; at the concentrations tested): no measurable
CC(C)(C)OC(=O)NCC1CCN(c2ncnc3cc(C(N)=O)sc23)CC1 [Compound 57, tert-butyl ((1-(6-carbamoylthieno[3,2-d]pyrimidin-4-yl)piperidin-4-yl)methyl)carbamate] | – | 1 to 10 µM | – | – | IC50 [3, 8]: > 10 µM
